This is an account of results in patent US6761123B2, “INFUSION OF COMBUSTION GASES INTO BALLAST WATER PREFERABLY UNDER LESS THAN ATMOSPHERIC PRESSURE TO SYNERGISTICALLY KILL HARMFUL AQUATIC NUISANCE SPECIES BY SIMULTANEOUS HYPERCAPNIA, HYPOXIA AND ACIDIC PH LEVEL” (MH Systems, priority 2001, dated 2004).

The nature of series [1]: Oxygen concentration and pH of seawater bubbled with the gas. Type of series: physicochemical. How it is done: The schematic of an experimental setup in validation of the principles and methods of the present invention (and also, a miniature scale, the gaseous exchange system) is shown in FIG. 1. Three parallel incubations were done for each experiment. Several organisms were incubated in 1.5 l of seawater at 22° C. in large Erlenmeyer flasks. Each incubation was equilibrated with the respective gas using aquarium stones before any organisms were introduced. The aerobic control was bubbled from an aquarium pump for approximately 15 min and left open to the atmosphere after addition of specimens. An anaerobic incubation was bubbled with 99.998% nitrogen for 15 min. After introduction of the organisms, the bubbling was continued for another 10 min and then the container was closed with a rubber stopper or the bubbling was continued. The incubation in […] treated similarly except that the gas mix was used instead of nitrogen. The oxygen concentrations were measured after the initial bubbling period using a Strathkelvin oxygen electrode with a Cameron instruments OM-200 oxygen analyzer. Values of pH were determined using a combination electrode and a Radiometer pH meter.

In a further series the test system is mussels. Put plainly: Incubation of mussels in gas-equilibrated seawater, survival by shell closing on tactile stimulus. Type of series: in vivo. Conditions: after 95 min incubation. The source says:
(§1) The purpose of the experiments described here was to obtain data on the effects of “inert gas” on marine organisms. “Inert gas” of a mixture hereinafter called trimix—a commercially available gas mixture of […], 12% CO2 and 84% nitrogen resembling the gas generated by commercially used marine “inert gas generators”—was used. Both adult and young adult marine organisms were chosen for two reasons: a) to make the size of specimens amenable for the experimental setup and b) to raise the significance of possible effects since adults of a species are typically more tolerant of environmental changes than juveniles or larvae. All marine organisms were collected fresh from the coastal waters off La Jolla, Calif. and used immediately. They are, in that particular environment, not necessarily nuisance organisms. Some of the organisms might be so considered, however, should they be introduced into other waters. […]
(§2) The schematic of an experimental setup in validation of the principles and methods of the present invention (and also, a miniature scale, the gaseous exchange system) is shown in FIG. 1. […] The oxygen concentrations were measured after the initial bubbling period using a Strathkelvin oxygen electrode with a Cameron instruments OM-200 oxygen analyzer. Values of pH were determined using a combination electrode and a Radiometer pH meter. […]

The subject of a further series is brittle stars. Put plainly: Incubation of brittle stars in gas-equilibrated seawater, survival by motile response. It is filed as in vivo. Particulars: transfer to aerobic conditions.
Description: as §1, §2

A further series concerns barnacles. Description: Incubation of barnacles in gas-equilibrated seawater, survival by withdrawal of feet when disturbed. Particulars: 1.5 l seawater, 22° C., equilibrated with gas. It is filed as in vivo.
Description: as §1, §2

In series [2] the test system is plankton sample (mainly copepods). Description: Incubation of plankton sample (mainly copepods) in gas-equilibrated seawater. Type of series: in vivo.
Description: as §1, §2

Take `N#N` [nitrogen]: the “oxygen concentration of the incubation” value in series [1] (measured after the initial bubbling period, oxygen electrode) is listed as “non-detectable”. The “pH value of the seawater bubbled with the gas” value in series [1] (seawater, normal pH 8, trimix value after initial 10 min of vigorous bubbling) was 8. Besides, in the series with mussels, the “response of mussels to tactile stimuli (closing shells)” value was “still responded to tactile stimuli by closing their shells” and the “state of mussel shells” value is recorded as “open”. Besides, the “movement of brittle stars after transfer into aerated water” value in the series with brittle stars was “started to move again”. In the series with barnacles, the “state of barnacles after incubation (withdrawal of feet when disturbed)” value was “still behaved normally”. For the same compound, the “time after which plankton (mainly copepods) stopped moving” value in series [2] (1.5 l seawater, 22° C., equilibrated with gas) came out at 15 min. In addition, in series [2] (after they stopped moving), the “revival of plankton (mainly copepods)” value is “could not be revived”.
